According to US20160207930A1 (LEO PHARMA A/S, priority 2013, published 2016):

How the values were obtained:
[1] = Hepatic intrinsic clearance following incubation in human liver microsomes; assay type: in vitro ADME; details: 0.5 μM test compound, NADPH, 0-30 min, scaled to g liver
Description: Hepatic Extraction Ratio from Hepatic Intrinsic Clearance Following Incubation in Human Liver Microsomes
The general procedure consists of an automated incubation system and LC-MS/MS analysis with human liver microsomes. Human liver microsomes are thawed rapidly in a waterbath at 37° C. and kept on ice until use. The human liver microsomes are diluted with 50 mM potassium phosphate buffer pH 7.4 to a protein concentration of 0.55 mg/mL. Test compounds and positive controls (Verapamil and Dextromethorphan, positive controls for CYP3A4 for CYP2D6 isoforms, respectively) are dissolved in methanol (or other appropriate solvent, if necessary) in order to obtain a 5 mM solution which is further diluted to the concentration of 50 μM. The stock solutions are prepared immediately before the test.
5 μL of 50 μM test compounds and controls are added to 445 μL-of the 0.55 mg/mL microsomes solution and the incubation mixture are pre-warmed at 37° C. for 5 minutes. The incubation reactions are initiated by adding 50 μL of pre-warmed NADPH regenerating system to the incubation mixtures. 50 μL-aliquots will be taken from the incubation mixtures at: 0, 3, 6, 9, 15 and 30 minutes and the reactions are stopped by adding 100 μL of ACN containing Rolipram, used as generic Internal Standard (IS). Samples are then diluted with 120 μL of Milli-Q water and centrifuged at 3000 rpm for 10 minutes, prior the LC-MS/MS analysis.
The integrated peak areas for test compounds at the selected time points are divided by the respective peak areas of the IS and the percent of parent remaining is calculated by normalizing the peak area ratio of parent to IS at 0 min. Observed rate constant (kobs) for parent degradation is calculated by determining the slope of the line of the graph of the natural log of percentage parent remaining versus time of incubation. From the rate of depletion (min−1) and volume of the incubation (mL), clearance is estimated. This is scaled for the protein in the incubation relative to that in the intact liver, for all species (mL/min/g liver).
Values for the Human in vitro Clint are expressed as mL/min/g liver.
Assuming a liver weight of 25.7 g/kg and a liver blood flow of 20.7 mL/min/kg, the hepatic extraction ratio, Eh, can be derived from the Human in vitro Clint:
E.g. a Human in vitro Clint of 2.4 mL/min/g liver corresponds to a hepatic extraction ratio of 75%.
Some compounds of the present invention were tested according to example 101.

NK1 Receptor = target: T1, NK1 Receptor (Homo sapiens, UniProt P25103); experiment: NK1 receptor mediated intracellular [Ca2+] mobilization in U251 MG cells using FLIPR; assay type: cell-based; details: antagonism of Substance P (EC80), Fluo-4, read-out: NK1R mediated intracellular [Ca^2+] mobilization IC 50
T1 construct: Measurement of NK1 Receptor Mediated Intracellular [Ca^2+]; Mobilization in U251 MG Cells Using FLIPR; endogenous in cells; host or cells: U251 MG cells
T1 sequence (P25103 whole entry): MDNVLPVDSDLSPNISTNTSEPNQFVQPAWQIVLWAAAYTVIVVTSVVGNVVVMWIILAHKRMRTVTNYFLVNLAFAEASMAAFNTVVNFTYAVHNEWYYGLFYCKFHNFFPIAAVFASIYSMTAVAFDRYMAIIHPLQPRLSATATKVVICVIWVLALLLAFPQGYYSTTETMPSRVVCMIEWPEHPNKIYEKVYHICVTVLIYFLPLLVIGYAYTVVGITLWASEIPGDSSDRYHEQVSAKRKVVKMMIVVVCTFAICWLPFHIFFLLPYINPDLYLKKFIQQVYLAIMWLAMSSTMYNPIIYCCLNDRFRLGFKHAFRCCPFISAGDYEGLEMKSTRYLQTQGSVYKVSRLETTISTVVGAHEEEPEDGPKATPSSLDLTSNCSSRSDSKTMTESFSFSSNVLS
Description: Measurement of NK1 Receptor Mediated Intracellular [Ca^2+] Mobilization in U251 MG Cells Using FLIPR
U251 MG cells were seeded into black walled clear-bottom 384-well plates (Greiner Bio-One GmbH, Frickenhausen, Germany) at a density of 15,000 cells/well in 50 μl culture medium and cultured overnight in a 37° C. 5% CO2 incubator. The cells were then loaded with the calcium sensitive dye Fluo-4 (Invitrogen) at 1 μM in buffer, containing 0.04% Pluronic F-127 (Sigma-Aldrich), and 2.5 mM probenecid (Sigma-Aldrich) for 60 min in a humidified atmosphere of 5% CO2. Thereafter, cells were washed three times in washing buffer containing 20 mM HEPES and 2.5 mM probenecid pH 7.3. Serial dilutions of test compounds in assay buffer containing 2% dimethyl sulfoxide (final concentration in the cell plate is 0.5% DMSO) and/or agonist were then automatically pipetted into each test well, and the peak fluorescence intensity was recorded (lex, 488 nm; lem, 540 nm) by the FLIPR instrument (Molecular Devices) for approximately 5 min. To measure antagonist potency, cell plates were first incubated with the test compound and intracellular fluorescence recorded for 5 minutes to check a potential agonist effect of the test compound. Cell plates were quickly removed from the FLIPR instrument and incubated for additional 10 minutes at 37° C. before being moved back to the FLIPR instrument for Substance P (EC80) addition. The response was measured as the peak relative fluorescence change after agonist addition.
Compound relative %-effect was normalized to the maximal response evoked by 100 nM Aprepitant in presence of the EC80 of Substance P and the antagonist potency determined by non-linear regression using GraphPad Prism (version 5) or the four-parameter logistic model in XLfit (IDBS, Guilford, UK) for Microsoft Excel (Microsoft, Redmond, Wash.). The IC50 value is defined as the molar concentration of a test compound that produces a response midway between the fitted top and the fitted bottom. pIC50=−log IC50
Formula is listed as follows:
Fit (% Effect calculated)=(A+((B−A)/(1+((C/X)̂D)))) • A: bottom value • B: top value • C: test compound concentration • X: Relative IC50 • D: Hill slope coefficient
Ref: Sullivan E, Tucker E M, and Dale I L. Measurement of [Ca^2+] using the Fluorometric Imaging Plate Reader (FLIPR). Methods Mol Biol 114:125-133, 1999.
Compounds of the present invention were tested according to example 100.

| Compound | Human in vitro Clint [1] | IC50 (NK1 Receptor) |
| --- | --- | --- |
| Cc1cc(F)ccc1[C@H]1[C@@H]2CCC(=O)N2CCN1C(=O)N(C)[C@H](C)c1cc(C(C)C)cc(C(F)(F)F)c1 [Compound 22, (1S,8aS)-1-(4-fluoro-2-methylphenyl)-N-(1-(3-isopropyl-5-(trifluoromethyl)phenyl)ethyl)-N-methyl-6-oxohexahydropyrrolo[1,2-a]pyrazine-2(1H)-carboxamide] | >200 mL/min/g | 0.197 nM |
| CCc1cc([C@@H](C)N(C)C(=O)N2CCN3C(=O)CC[C@H]3[C@@H]2c2ccc(F)cc2C)cc(C(F)(F)F)c1 [Compound 23, (1S,8aS)—N—((R)-1-(3-ethyl-5-(trifluoromethyl)phenyl)ethyl)-1-(4-fluoro-2-methylphenyl)-N-methyl-6-oxohexahydropyrrolo[1,2-a]pyrazine-2(1H)-carboxamide] | 78 mL/min/g | 0.037 nM |
| CCc1cc([C@@H](C)N(C)C(=O)N2CCN3C(=O)CC[C@H]3[C@@H]2c2ccc(O)cc2C)cc(C(F)(F)F)c1 [Compound 28, (1S,8aS)—N—((R)-1-(3-ethyl-5-(trifluoromethyl)phenyl)ethyl)-1-(4-hydroxy-2-methylphenyl)-N-methyl-6-oxohexahydropyrrolo[1,2-a]pyrazine-2(1H)-carboxamide] | >200 mL/min/g | 0.11 nM |
| COc1ccc([C@H]2[C@@H]3CC(CCO)(CCO)C(=O)N3CCN2C(=O)N(C)[C@H](C)c2cc(C(F)(F)F)cc(C(F)(F)F)c2)c(C)c1 [Compound 29, (1S,8aS)—N—((R)-1-(3,5-bis(trifluoromethyl)phenyl)ethyl)-7,7-bis(2-hydroxyethyl)-1-(4-methoxy-2-methylphenyl)-N-methyl-6-oxohexahydropyrrolo[1,2-a]pyrazine-2(1H)-carboxamide] | >200 mL/min/g | 0.114 nM |
| Cc1cc(O)ccc1[C@H]1[C@@H]2CC(CCO)(CCO)C(=O)N2CCN1C(=O)N(C)[C@H](C)c1cc(C(F)(F)F)cc(C(F)(F)F)c1 [Compound 30, (1S,8aS)—N—((R)-1-(3,5-bis(trifluoromethyl)phenyl)ethyl)-1-(4-hydroxy-2-methylphenyl)-7,7-bis(2-hydroxyethyl)-N-methyl-6-oxo-hexahydropyrrolo[1,2-a]pyrazine-2(1H)-carboxamide] | 18 mL/min/g | 0.116 nM |
| CCc1cc([C@@H](C)N(C)C(=O)N2CCN3C(=O)C(CCO)(CCO)C[C@H]3[C@@H]2c2ccc(O)cc2C)cc(C(F)(F)F)c1 [Compound 31, (1S,8aS)—N—((R)-1-(3-ethyl-5-(trifluoromethyl)phenyl)ethyl)-1-(4-hydroxy-2-methylphenyl)-7,7-bis(2-hydroxyethyl)-N-methyl-6-oxohexahydropyrrolo[1,2-a]pyrazine-2(1H)-carboxamide] | 61 mL/min/g | 0.059 nM |

More lines, now with the values ahead:

| Human in vitro Clint [1] | IC50 (NK1 Receptor) | Compound |
| --- | --- | --- |
| >200 mL/min/g | 0.799 nM | COc1ccc([C@H]2[C@@H]3CC(CCO)(CCO)C(=O)N3CCN2C(=O)N(C)[C@H](C)c2cc(C)cc(C(F)(F)F)c2)c(C)c1 [Compound 17, (1S,8aS)-7,7-bis(2-hydroxyethyl)-1-(4-methoxy-2-methylphenyl)-N-methyl-N—((R)-1-(3-methyl-5-(trifluoromethyl)phenyl)ethyl)-6-oxohexahydropyrrolo[1,2-a]pyrazine-2(1H)-carboxamide] |
| 40 mL/min/g | 0.137 nM | Cc1cc(F)ccc1[C@H]1[C@@H]2CCC(=O)N2CCN1C(=O)N(C)[C@H](C)c1cc(C(F)(F)F)cc(C(F)(F)F)c1 [Compound 20, (1S,8aS)—N—((R)-1-(3,5-bis(trifluoromethyl)phenyl)ethyl)-1-(4-fluoro-2-methylphenyl)-N-methyl-6-oxohexahydropyrrolo[1,2-a]pyrazine-2(1H)-carboxamide] |
| 36 mL/min/g | 0.083 nM | Cc1cc([C@@H](C)N(C)C(=O)N2CCN3C(=O)CC[C@H]3[C@@H]2c2ccc(F)cc2C)cc(C(F)(F)F)c1 [Compound 21, (1S,8aS)-1-(4-fluoro-2-methylphenyl)-N-methyl-N—((R)-1-(3-methyl-5-(trifluoromethyl)phenyl)ethyl)-6-oxohexahydropyrrolo[1,2-a]pyrazine-2(1H)-carboxamide] |
| >200 mL/min/g | 0.08 nM | CCc1cc([C@@H](C)N(C)C(=O)N2CCN3C(=O)C(CCO)(CCO)C[C@H]3[C@@H]2c2ccc(F)cc2C)cc(C(F)(F)F)c1 [Compound 24, (1S,8aS)—N—((R)-1-(3-ethyl-5-(trifluoromethyl)phenyl)ethyl)-1-(4-fluoro-2-methylphenyl)-7,7-bis(2-hydroxyethyl)-N-methyl-6-oxohexahydropyrrolo[1,2-a]pyrazine-2(1H)-carboxamide] |
| 128 mL/min/g | 0.08 nM | Cc1cc(F)ccc1[C@H]1[C@@H]2CC(CCO)(CCO)C(=O)N2CCN1C(=O)N(C)[C@H](C)c1cc(C(C)C)cc(C(F)(F)F)c1 [Compound 25, (1S,8aS)-1-(4-fluoro-2-methylphenyl)-7,7-bis(2-hydroxyethyl)-N—((R)-1-(3-isopropyl-5-(trifluoromethyl)phenyl)ethyl)-N-methyl-6-oxohexahydropyrrolo[1,2-a]pyrazine-2(1H)-carboxamide] |
| >200 mL/min/g | 7.36 nM | Cc1cc(OCc2ccccc2)ccc1[C@H]1[C@@H]2CCC(=O)N2CCN1C(=O)N(C)[C@H](C)c1cc(C(F)(F)F)cc(C(F)(F)F)c1 [Compound 26, (1S,8aS)-1-(4-(benzyloxy)-2-methylphenyl)-N—((R)-1-(3,5-bis(trifluoromethyl)phenyl)ethyl)-N-methyl-6-oxohexahydropyrrolo[1,2-a]pyrazine-2(1H)-carboxamide] |
| >200 mL/min/g | 0.064 nM | Cc1cc(O)ccc1[C@H]1[C@@H]2CCC(=O)N2CCN1C(=O)N(C)[C@H](C)c1cc(C(F)(F)F)cc(C(F)(F)F)c1 [Compound 27, (1S,8aS)—N—((R)-1-(3,5-bis(trifluoromethyl)phenyl)ethyl)-1-(4-hydroxy-2-methylphenyl)-N-methyl-6-oxohexahydropyrrolo[1,2-a]pyrazine-2(1H)-carboxamide] |
| >200 mL/min/g | 0.66 nM | CCc1cc([C@@H](C)N(C)C(=O)N2CCN3C(=O)CC[C@H]3[C@@H]2c2ccccc2C)nc(C(F)(F)F)c1 [Compound 32, (1S,8aS)—N—((R)-1-(4-ethyl-6-(trifluoromethyl)pyridin-2-yl)ethyl)-N-methyl-6-oxo-1-o-tolylhexahydropyrrolo[1,2-a]pyrazine-2(1H)-carboxamide] |
